Laboratory results from paper PMC9088311, “Cyclic Thiosulfonates for Thiol-Mediated Uptake: Cascade Exchangers, Transporters, Inhibitors” (JACS Au, 2022).
“And” between values parts separate entries of the source, which are not always exact repeats. Equal values may be shown once.

Experiment: Dynamic covalent ring opening with thiol 10, 1H NMR kinetics
Type: physicochemical
Experimental: The dynamic covalent opening of CTO 3 with thiols yields product 9 with a disulfide and a sulfinate (Figure 3B). Consistent with short chalcogen bonds found in silico, the opening of CTO 3 was instantaneous on an NMR timescale with most thiols. To decelerate ring opening, bulky thiols were considered in combination with lowered pH to deactivate the nucleophile. With N-Ac-D-penicillamine 10, the opening of 5 mM CTO 3 in phosphate buffer/DMSO-d6 9:1 was still immediate at pD 6.7 but became detectable in ^1H NMR spectroscopy kinetics under more acidic conditions. The ring-opening rate constants k^O were estimated by fitting the initial velocities to second-order kinetics. Only lower bound rates were approximated from the earliest determined substrate conversions when reactions were still too fast despite the unfavorable conditions. At pD 5.4, dynamic covalent ring opening of CTO 3 with equimolar tertiary thiol 10 occurred with k^O > 0.49 M^–1 s^–1 and equilibrated at K = 6.0 × 10^3 M^–1 (Table 1, entry 1, Figures S4 and S5). At pD 2.7, further deceleration to k^O = 0.10 M^–1 s^–1 shifted the equilibrium to K = 500 M^–1 (Table 1, entry 2, Figures S6 and S7). […] At equilibrium, the concentration of thiol 10 further decreased slowly due to oxidation into the homodimer (Figure 3C, diamonds).
Equilibrium constants for reactions with two reactants A and B and a product C are […]
3.1.1. Dynamic Covalent Ring Opening with Thiols
General procedure A (at 5 mM): To a solution of deuterated sodium phosphate (200 mM in D 2O, pD 2.7 or 5.4, 180 mM final concentration), a stock solution of substrate (0.10 M in DMSO-d6, 5.0 mM final concentration) was added and stirred. Then a stock solution of 10 (0.10 M in DMSO- d6, 5.0 mM final concentration) was added and vigorously stirred at room temperature. The solution was transferred immediately to an NMR tube and NMR data were recorded repeatedly. The concentration of the substrate or thiol at each time plot was calculated by comparing the integrals of the peaks indicated with arrows in the figures, and plotted. The data points were fitted to obtain k1 with the Equation (S6) or (S7) using Graphpad Prism.
General procedure B (at 2 mM): To a solution of deuterated sodium phosphate (200 mM in D 2O, pD 2.7 or 5.4, 180 mM final concentration), DMSO- d6 (10% DMSO- d6 in the reaction mixture) and a stock solution of substrate (0.10 M in DMSO- d6, 2.0 mM final concentration) were added and stirred. Then a stock solution of 10 (0.10 M in DMSO- d6, 2.0 mM final concentration) was added and vigorously stirred at room temperature. The solution was transferred immediately to an NMR tube and NMR data were recorded repeatedly. The concentration of the substrate or thiol at each time plot was calculated by comparing the integrals of the peaks indicated with arrows in the figures, and plotted. The data points were fitted to obtain k1 with the Equation (S6) or (S7) using Graphpad Prism.
General procedure C (for thiosulfinates): To a solution of deuterated sodium phosphate (200 mM in D 2O, pD 5.4, 170 mM final concentration), a stock solution of substrate (0.10 M in DMSO- d6, 5.0 mM final concentration) was added and stirred. Then a stock solution of 10 (0.10 M in DMSO- d6, 10 mM final concentration) was added and vigorously stirred at room […]
data points were fitted to obtain k1 with the Equation (S14) or (S16) using Graphpad Prism. […]
3.1.2. Dependence of Ring Opening on Proticity
A mixture of deuterated phosphoric acid and NaOD (30% in D 2O), which gave pD 2.7 in D2O, was used as buffer in all solvent mixtures. To a solution of deuterated sodium phosphate (20 mM final concentration) in a mixture of D 2O and DMSO- d6 (540 μL, final D 2O content: […]
concentration) was added and stirred. Then a stock solution of 10 (0.10 M in DMSO- d6, 5.0 mM final concentration) was added and vigorously stirred at room temperature. The solution was transferred immediately to an NMR tube and 1H NMR data were recorded repeatedly. […]

[1] = equimolar 10, rt, pD 2.7, 90% D2O, Na+ phosphate 180 mM, substrate 2 mM

O=S1(=O)C[C@H](O)[C@H](O)CS1 (stereo in doubt) [Compound 3, (4S,5R)-4,5-dihydroxy-1,2-dithiane-1,1-dioxide]
k^O, rate constant of ring opening (equimolar 10, rt, pD 2.7, 90% D2O/DMSO-d6, Na+ phosphate 180 mM, substrate 5 mM): 0.10 M^–1 s^–1 and 0.10 ^i M^–1 s^–1 | k^O, rate constant of ring opening (or equivalent for acyclic controls) (equimolar 10, rt, pD 5.4, 90% D2O/DMSO-d6, Na+ phosphate 180 mM, substrate 5 mM): >0.49 M^–1 s^–1 | k^O, rate constant of ring opening (estimated pD 2.7, Na+ phosphate 20 mM, 2% D2O, 5 mM): >1.4 M^–1 s^–1 | k^O, rate constant of ring opening (estimated pD 2.7, Na+ phosphate 20 mM, 5% D2O, 5 mM): >1.3 M^–1 s^–1 | k^O, rate constant of ring opening (estimated pD 2.7, Na+ phosphate 20 mM, 8% D2O, 5 mM): >1.4 M^–1 s^–1 | k^O, rate constant of ring opening (estimated pD 2.7, Na+ phosphate 20 mM, 10% D2O, 5 mM): >2.1 M^–1 s^–1 | k^O, rate constant of ring opening (estimated pD 2.7, Na+ phosphate 20 mM, 30% D2O, 5 mM): >2.8 M^–1 s^–1 | k^O, rate constant of ring opening (estimated pD 2.7, Na+ phosphate 20 mM, 50% D2O, 5 mM): >1.3 M^–1 s^–1 | k^O, rate constant of ring opening (estimated pD 2.7, Na+ phosphate 20 mM, 70% D2O, 5 mM): 0.28 ± 0.03 M^–1 s^–1 and 0.28 M^–1 s^–1 | k^O, rate constant of ring opening (estimated pD 2.7, Na+ phosphate 20 mM, 90% D2O, 5 mM): 0.15 ± 0.01 M^–1 s^–1 and 0.15 M^–1 s^–1 | krel^O, rate constant of ring opening relative to 3 (pD 2.7, 90% D2O, 5 mM): 1 | krel^O, rate constant of ring opening relative to 3 (pD 5.4, 90% D2O, 5 mM): 1

[O-][S+]1C[C@@H](O)[C@@H](O)CS1 (some centres unmarked) [Compound 2]
k^O, rate constant of ring opening (or equivalent for acyclic controls) (2 equiv of 10, rt, pD 5.4, 85% D2O, Na+ phosphate 170 mM, substrate 5 mM): 0.001 M^–1 s^–1 | krel^O, rate constant of ring opening relative to 3 (pD 5.4, 85% D2O, 5 mM, 2 equiv of 10): <0.002 | ring opening/exchange slower than CTO 3 (fold) (with thiol 10, pD 5.4): > 500 ×

O=C1O[C@H]2CSS(=O)(=O)C[C@H]2O1 [Compound 11]
k^O, rate constant of ring opening (or equivalent for acyclic controls) [1]: >12 M^–1 s^–1 | krel^O, rate constant of ring opening relative to 3 (pD 2.7, 90% D2O, 2 mM): >120 | ring opening faster than 3 (fold) (with thiol 10, pD 2.7): > 100 ×

O=S1(=O)C=C[C@@H](O)CS1 [Compound 12]
k^O, rate constant of ring opening (or equivalent for acyclic controls) [1]: >6.1 M^–1 s^–1 | krel^O, rate constant of ring opening relative to 3 (pD 2.7, 90% D2O, 2 mM): >61
